In US20260125375A1 (Pfizer Inc., priority 2022, published 2026):
Like-named read-outs stand apart in the source and are kept apart here.

Assays:
C-CBL = molecular target: T1, C-CBL (Homo sapiens, UniProt P22681); experiment: Jurkat HiBit-IL2 assay (CBL-B KO), reporter cell line expressing C-CBL only; assay type: cell-based; conditions: geometric mean, read-out: CBL-B KO EC50 (nM) GMean
T1 construct: endogenous in cells; host or cells: Jurkat HiBit-IL2 reporter cells, CBL-B knocked out by CRISPR
Summary of the method: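 IL-2 secretion was measured by HiBiT luminescence after 1 h compound exposure (0.1% DMSO) and 4 h TCR/CD28 stimulation (final anti-CD3 1 μg/ml, anti-CD28 2 μg/ml, 37 °C) of Jurkat reporters lacking c-CBL or CBL-B. EC50 came from fold-of-effect versus stimulated-only cells, as geometric means across tests.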

CBL-B (residues 36-427) = molecular target: T2, CBL-B (residues 36-427) (Homo sapiens, UniProt Q13191); experiment: Ligand Displacement Assay (LDA), HTRF competitive binding against BODIPY-labeled fluorescent tracer, CBL-B; conditions: geometric mean of the number of tests, read-out: CBL-B Ki (nM) GMean
T2 construct: Purified CBL-B (residues 36-427) and C-CBL (residues 46-435) proteins from baculovirus-infected insect cells; made in house; host or cells: baculovirus-infected insect cells
Summary of the method: (§1)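 Insect-cell (baculovirus) protein, N-term AviTag biotinylated via BirA, captured by SA-Tb; BODIPY tracer, KD measured per protein. 3-fold serial dilutions, duplicate, […], 2% DMSO final. Ki (nM) = geomean of runs.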

C-CBL (residues 46-435) = molecular target: T3, C-CBL (residues 46-435) (Homo sapiens, UniProt P22681); experiment: Ligand Displacement Assay (LDA), HTRF competitive binding against BODIPY-labeled fluorescent tracer, C-CBL; conditions: geometric mean of the number of tests, read-out: C-CBL Ki (nM) GMean
T3 construct: Purified CBL-B (residues 36-427) and C-CBL (residues 46-435) proteins from baculovirus-infected insect cells; made in house; host or cells: baculovirus-infected insect cells
T3 sequence (P22681 46-435): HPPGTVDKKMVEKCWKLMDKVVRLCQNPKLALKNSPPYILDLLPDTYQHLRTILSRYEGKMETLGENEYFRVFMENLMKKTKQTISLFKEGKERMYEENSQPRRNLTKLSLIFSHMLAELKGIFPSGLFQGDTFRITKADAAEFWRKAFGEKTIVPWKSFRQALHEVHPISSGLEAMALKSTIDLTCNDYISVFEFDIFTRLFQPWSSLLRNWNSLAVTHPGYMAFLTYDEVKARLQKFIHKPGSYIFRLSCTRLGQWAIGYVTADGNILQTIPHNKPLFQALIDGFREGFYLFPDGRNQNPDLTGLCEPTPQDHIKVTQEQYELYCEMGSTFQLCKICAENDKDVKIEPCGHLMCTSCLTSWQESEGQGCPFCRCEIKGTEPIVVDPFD
Summary of the method: as §1

CBL-B = molecular target: T4, CBL-B (Homo sapiens, UniProt Q13191); experiment: Jurkat HiBit-IL2 assay (c-CBL KO), reporter cell line expressing CBL-B only; assay type: cell-based; conditions: geometric mean, read-out: C-CBL KO EC50 (nM) GMean
T4 construct: endogenous in cells; host or cells: Jurkat HiBit-IL2 reporter cells, C-CBL knocked out by CRISPR
Excerpt: Jurkat HiBit-IL2 Assay (WT, c-CBL KO, CBL-B KO)
The purpose of the Jurkat HiBit-IL2 assay is to evaluate the effect of the inhibition of CBL-B and/or C-CBL on TCR/CD28 stimulated interleukin-2 (IL-2) secretion.
The expression of IL-2 can then be accurately measured by HiBit luciferase assay. Further, C-CBL or CBL-B was knocked out by CRISPR respectively in this Jurkat HiBit-IL2 reporter cell line to create reporter cell line expressing CBL-B only (c-CBL knockout (KO)) or C-CBL only (CBL-B KO).
All three reporter cell lines were maintained in RPMI-1640 media with GlutaMax, 10% fetal bovine serum, 100 units/ml of penicillin, and 100 μg/ml of streptomycin at 37° C., 5% CO2, at a cell density 1×10e5-2×10e6 viable cells/ml. Serial diluted compounds in DMSO (40 nl/well, final 0.1% DMSO in assay cell culture) were plated into 384-well white-wall clear-bottom cell culture plates. Reporter cells were pelleted and resuspended in fresh cell culture medium to 0.66×10e6 cells/ml and added to the assay plate at 30 μl/well (20,000 cells/well). The cells were incubated with compounds for 1 hour at 37° C., 5% CO2. 10 μl/well of anti-CD3 antibody (OKT3) and anti-CD28 antibody (CD28.2) prediluted in fresh cell culture medium at 4× final concentration (anti-CD3 mAb: 4 μg/ml; anti-CD28 mAb: 8 μg/ml) was added into the cells (final concentration of anti-CD3 mAb: 1 μg/ml; anti-CD28 mAb: 2 μg/ml). The cells were cultured for another 4 hours at 37° C., 5% CO2. The Nano-Glo HiBiT Lytic Reagent was prepared following the manufacturer's protocol. 20 ul/well of the Nano-Glo HiBiT Lytic Reagent was added into the reporter cell culture assay plate and incubated at room temperature (20-25° C.) for 15 minutes. The plates were read on a Perkin-Elmer EnVision plate reader with 0.1 second integration time. Data were normalized to “Fold of Effect” with the anti-CD3 and anti-CD28 antibodies only samples as the baseline activation level and EC50 was calculated. The EC50 (nM) values reported are the geometric means (GMean) of the number of tests conducted.

[1] = CBL-B KO (C-CBL only), anti-CD3/anti-CD28 stimulation 4 hours, Table 16a
[2] = CBL-B KO (expressing C-CBL only), Table 16b (further repetition)
[3] = C-CBL KO (expressing CBL-B only), Table 16b (further repetition)
[4] = c-CBL KO (CBL-B only), anti-CD3/anti-CD28 stimulation 4 hours, Table 16a

Compound	EC50 (C-CBL; [1]) [nM]	EC50 (C-CBL; [2]) [nM]	Ki (CBL-B (residues 36-427)) [nM]	Ki (C-CBL (residues 46-435)) [nM]	EC50 (CBL-B; [3]) [nM]	EC50 (CBL-B; [4]) [nM]
C[C@@H](N[C@H]1CCC[C@@H]1O)c1nc(C(F)(F)F)cc2c(-c3cccc([C@H](c4nncn4C)C4CCC4)c3)n[nH]c12 (single isomer, unassigned) [Example C46]	392	330	9.4	67.8	61	36
C[C@H](c1nc(C(F)(F)F)cc2c(-c3cccc([C@H](c4nncn4C)C4CCC4)c3)n[nH]c12)N1CC(C)(O)C1 (single isomer, unassigned) [Example D67]	–	1520	10.9	78.5	321	–
CC[C@H](c1cccc(-c2n[nH]c3c([C@@H](C)NC[C@H](C)O)nc(C(F)(F)F)cc23)c1)c1nncn1C (single isomer, unassigned) [Example D77]	–	93	0.8	4.5	33	–
CC(NC1CCC1)c1nc(C2CC2)cc2c(-c3cccc(C4(Cc5nncn5C)COC4)c3)n[nH]c12 (single isomer, unassigned) [Example H3, N-{(1ξ)-1-[5-cyclopropyl-3-(3-{3-[(4-methyl-4H-1,2,4-triazol-3-yl)methyl]oxetan-3-yl}phenyl)-1H-pyrazolo[3,4-c]pyridin-7-yl]ethyl}cyclobutanamine]	392	415	8.1	28.8	231	49
CC[C@H](c1cccc(-c2n[nH]c3c([C@H](C)NC[C@H](C)O)nc(C(F)(F)F)cc23)c1)c1nncn1C (single isomer, unassigned) [Example D76]	–	39	0.7	2.9	20	–
CC(NC(=O)CO)c1nc(C(F)(F)F)cc2c(-c3cccc([C@H](c4nncn4C)C4CCC4)c3)n[nH]c12 (single isomer, unassigned) [Example I2]	2420	–	7.8	64.5	–	313
C[C@@H](NC1CC[C@H]1O)c1nc(C(F)(F)F)cc2c(-c3cccc([C@H](c4nncn4C)C4CCC4)c3)n[nH]c12 (single isomer, unassigned) [Example D31]	199	258	4	27.3	56	16
CCC(CC)(CO)N[C@H](C)c1nc(C(F)(F)F)cc2c(-c3cccc([C@H](c4nncn4C)C4CCC4)c3)n[nH]c12 (single isomer, unassigned) [Example D75]	–	1030	11	128	195	–
C[C@H](NC1(CO)CCC1)c1nc(C(F)(F)F)cc2c(-c3cccc([C@H](c4nncn4C)C4CCC4)c3)n[nH]c12 (single isomer, unassigned) [Example D72]	–	563	8.7	116	103	–
CC(NC[C@H](C)O)c1nccc2c(-c3cccc([C@H](c4nncn4C)C4CCC4)c3)n[nH]c12 (single isomer, unassigned) [Example C124]	–	3280	7.9	109	348	–
C[C@@H](O)CN[C@H](C)c1nc(C(F)(F)F)cc2c(-c3cccc([C@H](c4nncn4C)C4CCC4)c3)n[nH]c12 (single isomer, unassigned) [Example D26]	122	180	1.8	14	30	9
CC(NC(=O)[C@H](C)O)c1nc(C(F)(F)F)cc2c(-c3cccc([C@H](c4nncn4C)C4CCC4)c3)n[nH]c12 (single isomer, unassigned) [Example I4]	852	491	3.4	24.3	108	48
CC(C)[C@H]1CN(C)CCN1Cc1nc(C(F)(F)F)cc2c(-c3cccc([C@H](c4nncn4C)C4CCC4)c3)n[nH]c12 [Example D32, 3-{3-[(R)-cyclobutyl(4-methyl-4H-1,2,4-triazol-3-yl)methyl]phenyl}-7-{[(2S)-4-methyl-2-(propan-2-yl)piperazin-1-yl]methyl}-5-(trifluoromethyl)-1H-pyrazolo[3,4-c]pyridine]	175	134	1.3	10.2	12	8
C[C@H](NC[C@@H](C)O)c1nc(C(F)(F)F)cc2c(-c3cccc([C@H](c4nncn4C)C4CCC4)c3)n[nH]c12 (single isomer, unassigned) [Example D25]	174	359	6.4	51.1	101	20
C[C@H](N[C@@H]1CC[C@H](O)C1)c1nc(C(F)(F)F)cc2c(-c3cccc([C@H](c4nncn4C)C4CCC4)c3)n[nH]c12 [Example C49, (1S,3R)-3-({(1S)-1-[3-{3-[(R)-cyclobutyl(4-methyl-4H-1,2,4-triazol-3-yl)methyl]phenyl}-5-(trifluoromethyl)-1H-pyrazolo[3,4-c]pyridin-7-yl]ethyl}amino)cyclopentanol]	135	–	2.1	20.9	–	8
CC(NCC(C)(C)O)c1nc(C(F)(F)F)cc2c(-c3cccc([C@H](c4nncn4C)C4CCC4)c3)n[nH]c12 (single isomer, unassigned) [Example C45]	102	115	2.5	22.1	30	14
